Measured values as given in patent US11634452B2, “Compounds for treating neurodegenerative disorders” (ETHNODYNE, priority 2017, dated 2023).

What was measured:
[1] = system: primary cocultures of central neurons and oligodendrocytes; experiment: In vitro MS (myelination) model; type: cell-based, rat
Procedure: A reproducible in vitro myelination model based on primary cocultures of central neurons and oligodendrocytes culturing in 96-well plate is used and adapted to high throughput screening.
Neurons/oligodendrocytes were cultured as previously described by Charles et al., 2000. PNAS 97 7585-7590.
Briefly, pregnant Wistar female rats of 17 days gestation were killed by cervical dislocation (Janvier Labs, France) and the foetuses removed from the uterus. The forebrains were removed and placed in ice-cold medium of Leibovitz (L15; Pan Biotech, Germany) containing 2% of Penicillin-Streptomycin (Batch 1451013, PanBiotech) and 1% of bovine serum albumin (BSA) (Batch K180713, Pan Biotech). Cortexes were dissociated by trypsinisation for 20 min at 37° C., with Trypsin EDTA 1× (Batch 7310713, PanBiotech). The reaction was stopped by the addition of Dulbecco's modified Eagle's medium (DMEM) (Batch 9710913, PanBiotech) containing DNAase I grade II at 0.1 mg/mL (Batch H131108, PanBiotech) and 10% of foetal calf serum (Batch 41Q7218K, Invitrogen, France). Cells were then mechanically dissociated by 3 passages through a 10 mL pipette. Cells were centrifuged at 180×g for 10 min at 4° C. temperature on a layer of BSA (3.5%) in L15 medium. The supernatant was discarded and cells of the pellet were re-suspended in DMEM containing 10% of FCS. […] The supernatant was discarded and cells of pellet were re-suspended in a culture medium consisting of Neurobasal (Batch 1625353, Invitrogen) supplemented with 2% of B27 (Batch 1618508, Invitrogen), 2 mM of L-glutamine (Batch 6620314, PanBiotech), 2% of PS solution, 1% of foetal calf serum (FCS) and 10 ng/mL of platelet-derived growth factor (PDGF-AA) (Batch H131205, PanBiotech).
The plates were maintained at 37° C. in a humidified incubator, in an atmosphere of air (95%)-CO2 (5%). Half of the medium was changed every 2 days with fresh medium in presence or absence of compound.
Plate 1 for Day 12 (A2B5) and plate 2 for Day 18 (MAG evaluation) • Control (vehicle) • Compound CR777 of example 1 (1 pmol/L) • Compound CR777 of example 1 (10 pmol/L) • Compound CR777 of example 1 (100 pmol/L) • Compound CR777 of example 1 (1 nmol/L) • Compound CR777 of example 1 (10 nmol/L) • Compound CR777 of example 1 (100 nmol/L) • Compound CR777 of example 1 (1 μmol/L) • Compound CR777 of example 1 (10 μmol/L)
The cells were then permeabilized and non-specific sites were blocked with a solution of phosphate buffered saline (Batch 3010914, PanBiotech) containing 0.1% of saponin (Batch BCBJ8417V, Sigma) and 1% FCS for 15 min at room temperature.
On day 12, cells were incubated with Monoclonal Anti-A2B5 conjugated Alexa Fluor® 488 produced in mouse (Batch 2281669, Millipore, France) at dilution of 1/200 in PBS containing 1% FCS, 0.1% saponin, and with anti-MAP-2 antibody produced in chicken (Batch GR180541-3, AbCam; United Kingdom) at dilution of 1/1000 in PBS containing 1% FCS, 0.1% saponin for 2 h at room temperature. […]
The immunolabeled cultures were automatically examined with ImageXpress (Molecular Devices) equipped with a LED at ×20 magnification. […] Number of A2B5 positive cells and number of MAG positive cells were automatically analyzed by using Custom module editor (Molecular Devices). […] All values were expressed as mean+/−SEM (s.e.mean) of the 6 wells. […]

[2] = system: Primary Human Umbilical Vein Endothelial Cells (HUVEC); experiment: Cytotoxicity test, cell growth inhibition by MTS assay; type: cell-based; conditions: 72 h incubation, 8 concentrations
Procedure: (§1) Human MRC-5 cell line derived from normal lung tissue and human HCT-116 colorectal carcinoma were obtained from the American Type Culture Collection (ATCC, Rockville, Md.). Primary Human Umbilical Vein Endothelial Cells (HUVEC) isolated from the vein of the umbilical cord were obtained from Promocell (Germany). Cell lines were cultured according to the supplier's instructions. Human HCT-116 cells were grown in Gibco McCoy's 5A supplemented with 10% fetal calf serum (FCS) and 1% glutamine. Human MRC-5 cells were grown in DMEM supplemented with 10% fetal calf serum (FCS) and 1% glutamine. HUVECs were grown in Endothelial Cell Growth Medium 2 which is low-serum (2% V/V) media optimized for the cultivation of endothelial cells from large blood vessels.
(§2) Cells were counted using a Vi-cell XR (Beckman Coulter) and their viability assessed by 0.25% trypan blue dye exclusion. They were tested for the presence of mycoplasma before experiments with the Mycoplasma PCR Detection Kit (Applied Biological Materials Inc., Canada) in accordance with the manufacturer instructions and only mycoplasma-free cells were used for further investigations.
(§3) Cell lines were maintained at 37° C. in a humidified atmosphere containing 5% CO2. Cell growth inhibition was determined by an MTS assay according to the manufacturer's instructions (Promega, Madison, Wis., USA). […] After 24 h of culture, the cells were treated with the compound CR777 of example 1 at 8 different final concentrations. Each concentration was obtained from serial dilutions in culture medium starting from the stock solution. Control cells were treated with the vehicle. Experiments were performed in triplicate.
(§4) After 72 h of incubation, 20 μL of CellTiter 96® AQueous One Solution Reagent was added for 2 h before recording absorbance at 490 nm with a spectrophotometric plate reader. The dose-response curves were plotted with Graph Prism software and the IC50 values were calculated using the Graph Prism software from polynomial curves (four or five-parameter logistic equations).

[3] = system: Human MRC-5 cell line derived from normal lung tissue; experiment: as above; type: cell-based; conditions: MRC-5, 72 h incubation, 8 concentrations
Procedure: as §1, §2, §3, §4

[4] = system: human HCT-116 colorectal carcinoma; experiment: as above; type: cell-based; conditions: HCT-116, 72 h incubation, 8 concentrations
Procedure: as §1, §2, §3, §4

[5] = 18 days of treatment, significant from 1 pmol/L up to 1 μmol/L, not at 10 μM

## CC1=C(CO)C(=O)O[C@@H]([C@@H](C)[C@H]2CCC3C4C[C@H](SC[C@H](NC(=O)CC[C@@H](N)C(=O)O)C(=O)NCC(=O)O)[C@]5(O)[C@@H](O)C=CC(=O)[C@]5(C)C4CC[C@@]32C)C1 (some centres unmarked) [CR777]
[1]; 12 days treatment, 1 pmol/L to 10 μmol/L
  OPC (precursor cells of oligodendrocytes) number, A2B5 positive cells: did not show any significant increase
[1]; 12 days treatment, at the highest doses
  total number of OPCs: decrease of the total number of OPCs
[1]; 18 days of treatment, all doses
  maximal effect on MAG, increase vs control: ~60%
[1]; [5]
  myelination of neurons by OL (area of MAG expression): significantly improved
  number of MAG positive cells (OL): able to increase the number of MAG positive cells
[2]
  toxicity (cell growth inhibition, MTS): does not show any toxicity
[3]
  toxicity (cell growth inhibition, MTS): does not show any toxicity
[4]
  toxicity (cell growth inhibition, MTS): does not show any toxicity
